These results are taken from PubChem BioAssay AID248 (DTP/NCI, 2004).

SMILES strings stand for the structures. Several values for one entry are separate records, joined by “and”; a condition that tells them apart may be missing. Identical values can stand only once. Inconclusive results and toxic doses are left out.

The assay relates to L1210 leukemia ip in BDF1 mice, survival T/C. The experiment in a line: NCI In Vivo Anticancer Drug Screen. Data for tumor model L1210 Leukemia (intraperitoneal) in B6D2F1 (BDF1) mice. The settings on record: endpoint: mean survival time, higher = longer survival. A digest of the protocol: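 Tumor was transplanted into mice, which were then dosed with test compound or vehicle alone. Survival was recorded for each group, and the treated figure was expressed relative to the control figure.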

Where [1] appears, read: dose: 6.25 mg/kg/injection, schedule: Q01DX009 (ip), vehicle: saline.
Setting [2] is: dose: 12.5 mg/kg/injection, schedule: Q01DX009 (ip), vehicle: saline.
The mark [3] stands for this setting: dose: 25.0 mg/kg/injection, schedule: Q01DX009 (ip), vehicle: saline.
Setting [4] is: dose: 50.0 mg/kg/injection, schedule: Q01DX009 (ip), vehicle: saline.
Setting [5] is: dose: 100.0 mg/kg/injection, schedule: Q01DX009 (ip), vehicle: saline.
Setting [6] is: dose: 200.0 mg/kg/injection, schedule: Q01DX009 (ip), vehicle: saline.
The mark [7] stands for this setting: dose: 100.0 mg/kg/injection, schedule: Q04DX002 (ip), vehicle: saline with Tween-80.
Where [8] appears, read: dose: 200.0 mg/kg/injection, schedule: Q04DX002 (ip), vehicle: saline with Tween-80.
[9] abbreviates: dose: 400.0 mg/kg/injection, schedule: Q04DX002 (ip), vehicle: saline with Tween-80.
The mark [10] stands for this setting: dose: 100.0 mg/kg/injection, schedule: Q01DX001 (ip), vehicle: saline.
Setting [11] is: dose: 200.0 mg/kg/injection, schedule: Q01DX001 (ip), vehicle: saline.
Setting [12] is: dose: 400.0 mg/kg/injection, schedule: Q01DX001 (ip), vehicle: saline.
The mark [13] stands for this setting: dose: 100.0 mg/kg/injection, schedule: Q04DX002 (ip), vehicle: Klucel (hydroxypropylcellulose) (HPC).
[14] abbreviates: dose: 200.0 mg/kg/injection, schedule: Q04DX002 (ip), vehicle: Klucel (hydroxypropylcellulose) (HPC).
Where [15] appears, read: dose: 400.0 mg/kg/injection, schedule: Q04DX002 (ip), vehicle: Klucel (hydroxypropylcellulose) (HPC).

As to `O=C(NCCBr)c1ccc(N=Nc2ccccc2)cc1`, the T/C (dose: 20.0 mg/kg/injection, schedule: Q01DX009 (ip), vehicle: Klucel (hydroxypropylcellulose) (HPC)) is 95 % of control; the T/C (dose: 20.0 mg/kg/injection, schedule: Q04DX003 (ip), vehicle: Klucel (hydroxypropylcellulose) (HPC)) is 103 % of control; the T/C (dose: 40.0 mg/kg/injection, schedule: Q01DX009 (ip), vehicle: Klucel (hydroxypropylcellulose) (HPC)) was 95 % of control; the T/C (dose: 40.0 mg/kg/injection, schedule: Q04DX003 (ip), vehicle: Klucel (hydroxypropylcellulose) (HPC)) is 103 % of control; the T/C (dose: 80.0 mg/kg/injection, schedule: Q01DX009 (ip), vehicle: Klucel (hydroxypropylcellulose) (HPC)) is 91 % of control; the T/C (dose: 80.0 mg/kg/injection, schedule: Q04DX003 (ip), vehicle: Klucel (hydroxypropylcellulose) (HPC)) was 105 % of control.

Turning to `CC[N+](C)(CC)CCCNC(=O)C(c1ccccc1)c1ccccc1`, under “dose: 100.0 mg/kg/injection, schedule: Q04DX003 (ip), vehicle: saline with Tween-80”, the T/C is 100 % of control.

As to `O=c1cc(Sc2ccccc2)[nH]c(=O)[nH]1`, the T/C is 96 % of control (dose: 100.0 mg/kg/injection, schedule: Q04DX003 (ip), vehicle: Klucel (hydroxypropylcellulose) (HPC)); 105 % of control (dose: 200.0 mg/kg/injection, schedule: Q04DX003 (ip), vehicle: Klucel (hydroxypropylcellulose) (HPC)); 102 % of control (dose: 400.0 mg/kg/injection, schedule: Q04DX003 (ip), vehicle: Klucel (hydroxypropylcellulose) (HPC)).

For `COC1C(/C=C/C(C)=O)OC2OC(C)(C)OC21` (stereo not drawn), the T/C is 105 % of control under setting [1]; 105 % of control under setting [2]; 107 % of control under setting [3]; 98 % of control under setting [4]; 100 % of control under setting [5]; 98 % of control under setting [6].

As to `NC(N)=NC(N)=Nc1ccc(S(=O)(=O)c2ccc(N=C(N)N=C(N)N)cc2)cc1`, the T/C (dose: 100.0 mg/kg/injection, schedule: Q01DX009 (ip), vehicle: saline with Tween-80) was 95 % of control and the T/C (dose: 200.0 mg/kg/injection, schedule: Q01DX009 (ip), vehicle: saline with Tween-80) is 95 % of control.

Turning to `COP(=O)(NC(C)=O)OC`, the T/C under setting [7] was 108 % of control, the T/C under setting [8] was 102 % of control and the T/C under setting [9] is 150 % of control.

As for `CC(=O)Nc1ccc(NC(=O)NCCCCCCNC(=O)Nc2ccc(NC(C)=O)cc2)cc1`, the T/C runs as follows: (dose: 100.0 mg/kg/injection, schedule: Q01DX009 (ip), vehicle: Klucel (hydroxypropylcellulose) (HPC)) 102 % of control; (dose: 200.0 mg/kg/injection, schedule: Q01DX009 (ip), vehicle: Klucel (hydroxypropylcellulose) (HPC)) 98 % of control; (dose: 400.0 mg/kg/injection, schedule: Q01DX009 (ip), vehicle: Klucel (hydroxypropylcellulose) (HPC)) 100 % of control.

For the compound `CCN(CC)CCOc1ccccc1OC`, the T/C by setting is: (dose: 12.0 mg/kg/injection, schedule: Q01DX009 (ip), vehicle: saline) 107 % of control; under setting [3], 101 % of control; under setting [4], 101 % of control; under setting [10], 93 % of control; under setting [11], 95 % of control.

In the case of `C1CC2CC1CC1C3CC4CCC(C4)C3OC21` (stereo not drawn), the T/C (dose: 50.0 mg/kg/injection, schedule: Q04DX002 (ip), vehicle: saline with Tween-80) was 98 % of control; the T/C under setting [7] is 102 % of control; the T/C under setting [8] is 91 % of control; the T/C under setting [9] was 95 % of control.

For the compound `O=[N+]([O-])c1cccc(/C=N/N2CCN(/N=C/c3cccc([N+](=O)[O-])c3)CC2)c1`, the T/C under setting [10] is 102 % of control, the T/C under setting [11] is 92 % of control and the T/C under setting [12] was 96 % of control.

Regarding `O=S(=O)(C1CC1)C1CC1`, the T/C by setting is: under setting [7], 94 % of control; under setting [8], 103 % of control; under setting [9], 94 % of control.

`O=C(CCC(=O)Nc1ccc(Cl)c(Cl)c1)Nc1ccc(Cl)c(Cl)c1`: the T/C under setting [13] was 93 % of control, the T/C under setting [14] is 89 % of control and the T/C under setting [15] is 104 % of control.

For the compound `NC(=S)NNc1ccccn1`, the T/C (dose: 3.13 mg/kg/injection, schedule: Q01DX009 (ip), vehicle: saline) was 108 % of control; the T/C under setting [1] is 96 % of control; the T/C under setting [2] is 101 % of control; the T/C (dose: 100.0 mg/kg/injection, schedule: Q04DX002 (ip), vehicle: saline) is 94 % of control.

Consider `CC(O)C1CCN(Cc2ccccc2)CC1` (stereo not drawn), for which the T/C reads like this: (dose: 50.0 mg/kg/injection, schedule: Q01DX001 (ip), vehicle: carboxymethylcellulose (CMC)) 101 % of control; (dose: 100.0 mg/kg/injection, schedule: Q01DX001 (ip), vehicle: carboxymethylcellulose (CMC)) 108 % of control; (dose: 200.0 mg/kg/injection, schedule: Q01DX001 (ip), vehicle: carboxymethylcellulose (CMC)) 106 % of control.

Consider `Cc1cc(OCC(N)=O)ccc1Cl`, for which the T/C reads like this: under setting [13], 103 % of control; under setting [14], 92 % of control; under setting [15], 98 % of control.

On to `CCCCNC(C)(C)C(=O)c1cccs1`, for which the T/C is, setting by setting: (dose: 100.0 mg/kg/injection, schedule: Q04DX003 (ip), vehicle: saline) 102 % of control; (dose: 200.0 mg/kg/injection, schedule: Q04DX003 (ip), vehicle: saline) 86 % of control.

As to `CN(N)P(=S)(c1ccccc1)N(C)N`, the T/C reads like this: (dose: 6.25 mg/kg/injection, schedule: Q01DX009 (ip), vehicle: Klucel (hydroxypropylcellulose) (HPC)) 97 % of control; (dose: 12.5 mg/kg/injection, schedule: Q01DX009 (ip), vehicle: Klucel (hydroxypropylcellulose) (HPC)) 100 % of control; (dose: 12.5 mg/kg/injection, schedule: Q04DX003 (ip), vehicle: Klucel (hydroxypropylcellulose) (HPC)) 97 % of control; (dose: 25.0 mg/kg/injection, schedule: Q01DX009 (ip), vehicle: Klucel (hydroxypropylcellulose) (HPC)) 94 % of control; (dose: 25.0 mg/kg/injection, schedule: Q04DX003 (ip), vehicle: Klucel (hydroxypropylcellulose) (HPC)) 92 % of control.

Take `CC(=O)NNC(=O)c1ccncc1`: the T/C is 93 % of control (dose: 100.0 mg/kg/injection, schedule: Q01DX001 (ip), vehicle: water); 101 % of control (dose: 100.0 mg/kg/injection, schedule: Q01DX009 (ip), vehicle: water); 98 % of control (dose: 200.0 mg/kg/injection, schedule: Q01DX001 (ip), vehicle: water); 106 % of control and 110 % of control (dose: 200.0 mg/kg/injection, schedule: Q01DX009 (ip), vehicle: water); 102 % of control (dose: 400.0 mg/kg/injection, schedule: Q01DX001 (ip), vehicle: water); 122 % of control (dose: 600.0 mg/kg/injection, schedule: Q01DX009 (ip), vehicle: water). Also, under “dose: 800.0 mg/kg/injection, schedule: Q01DX009 (ip), vehicle: water”, the T/C is 97 % of control.

For the compound `Clc1c(Cl)c(/C=N/Nc2ccccc2)c(Cl)c(Cl)c1/C=N\Nc1ccccc1`, the T/C was 101 % of control (dose: 50.0 mg/kg/injection, schedule: Q01DX001 (ip), vehicle: saline); 95 % of control under setting [10]; 98 % of control under setting [5]; 92 % of control under setting [11]; 96 % of control under setting [6]; 95 % of control under setting [12]. For the same compound, the T/C (dose: 400.0 mg/kg/injection, schedule: Q01DX009 (ip), vehicle: saline) is 96 % of control.

For the compound `Clc1nc2ccccc2s1`, the T/C runs as follows: (dose: 100.0 mg/kg/injection, schedule: Q01DX009 (ip), vehicle: alcohol) 88 % of control; (dose: 200.0 mg/kg/injection, schedule: Q01DX009 (ip), vehicle: alcohol) 89 % of control.

For the compound `CC(=O)OCC(OC(C)=O)C1OCOC2COCOC21` (stereo not drawn), the T/C is 108 % of control (dose: 100.0 mg/kg/injection, schedule: Q01DX001 (ip), vehicle: Klucel (hydroxypropylcellulose) (HPC)); 89 % of control (dose: 200.0 mg/kg/injection, schedule: Q01DX001 (ip), vehicle: Klucel (hydroxypropylcellulose) (HPC)); 101 % of control (dose: 400.0 mg/kg/injection, schedule: Q01DX001 (ip), vehicle: Klucel (hydroxypropylcellulose) (HPC)).
